How the values were obtained:
[1] = precipitation noted in proliferation assay (FIG. 9E); type: physicochemical
Method: As illustrated, nisins can have some uncommon amino acids such as lanthionine (Lan), methyllanthionine (MeLan), didehydroalanine (Dha), and didehydroaminobutyric acid (Dhb). FIG. 9E graphically illustrates inhibition of HCT-15 and DLD-1 colorectal cancer cell proliferation and IC50 values obtained for nisins A and Z. The plot is representative of four triplicate tests including two each for HCT-15 and DLD-1 cells. Note that Nisin A began to precipitate at concentrations >400 μg/mL.

[2] = tested on: Weissella viridescens NRRL B-1951; experiment: HPLC of tube supernatants: glucose consumption and organic acid production; type: cell-based; conditions: for acetic acid in fermentation media: MRS media originally contained 7% acetate
Method: Each tube was sampled (1.5 mL conical polypropylene centrifuge tubes) and centrifuged at 10 kRPM for 10 minutes to remove and suspended cells. The resulting supernatants were filtered (0.2 μm nylon), diluted to 0.5% solids, and analyzed by high pressure liquid chromatography (HPLC, Agilent 1100, refractive index detector and BioRad Ainex HPX-87H column) for consumption of glucose and production of organic acids.
Note that the MRS media originally contained 7% acetate; therefore 7% should be subtracted from the values for acetate in Table 8 to ascertain the amount of acetate generated during the assay.

[3] = tested on: Weissella viridescens NRRL B-1951; experiment: tube assay, W. viridescens growth with nisin A or Z (absorbance); type: cell-based
Method: 100 g De-Man, Rogosa and Sharpe (MRS) media was prepared in a 500 mL Erlenmeyer to contain 5.5% solids in deionized water (18.2 MΩ, Hydro Service and Supplies. Gaithersburg, Md.). The media was autoclaved (121° C. 15 min), cooled, and inoculated with 1 mL (0.5 mL culture+0.5 mL glycerol, 40%; frozen at −78° C.) of Weissella viridescens NRRL B-1951 (test strain). The culture was incubated at 31° C. overnight (15 Hr).
The next day, stock solutions of either nisin A or Z were prepared in deionized water to contain 31.3 and 33.7 μg/g of each peptide.
100 g MRS media was prepared to contain 5.5% solids. Two sets (one set each for nisin A and nisin Z) of eight Hach-type tubes (Kimble Chase 45066-16100) were prepared. Within each set, in order was added 5.00, 4.95, 4.90, 4.75, 4.50, 4.00, 3.50 and 3.00 g MRS media. The tubes were sealed and autoclaved.
To each tube was added, of the appropriate nisin stock, 0.00, 0.05, 0.10, 0.25, 0.50, 1.00, 1.50, and 2.00 g. Each tube was inoculated with 0.25 g of late-log W. viridescens NRRL B-1951 culture. The tubes were sealed and the absorbance at 600 nm was quickly measured (Hach DR900). The tubes were segregated by set and incubated at 31° C. overnight (15 Hr).
Each tube was thoroughly mixed to suspend settled cells and the absorbance was measured again at 600 nm. The final absorbance values for each sample were corrected for their respective background (taken just after inoculation, scattered light from added cells). The corrected absorption values were a measure of W. viridescens growth.
As indicated above, the absorbance of the culture was measured again at 600 nm as a measure of W. viridescens growth, and the absorbance values for each sample were corrected for their respective background. These corrected absorption values plotted against nisin concentration and minimum inhibiting concentration approximated via regression.
The results were fit via four parameter logistic regression (4PLR), combined into a continuous function with a second assay set (0.65-9.99 μg/g), and are shown in FIG. 11A.

[4] = tube A2, nisin A 0.33 μg/g, 15 Hr
[5] = tube A3, nisin A 0.68 μg/g, 15 Hr
[6] = tube A4, nisin A 1.38 μg/g, 15 Hr
[7] = tube A5, nisin A 3.08 μg/g, 15 Hr
[8] = tube A6, nisin A 5.97 μg/g, 15 Hr
[9] = tube A7, nisin A 8.86 μg/g, 15 Hr
[10] = tube A8, nisin A 11.87 μg/g, 15 Hr

## MSTKDFNLDLVSVSKKDSGASPRITSISLCTPGCKTGALMGCNMKTATCHCSIHVSK [nisin A]
[1]
  concentration at which precipitation began: > 400 µg/mL
[2]; tube A2, nisin A 0.33 μg/g
  Maltotriose in fermentation media: 0.312 %/brix
  ethanol in fermentation media: 0.068 %/brix
  formic acid in fermentation media: 0.263 %/brix
  fructose in fermentation media: 0.000 %/brix
  glucose in fermentation media: 23.122 %/brix
  glycerol in fermentation media: 0.292 %/brix
  lactic acid in fermentation media: 6.884 %/brix
  maltose in fermentation media: 0.581 %/brix
  acetic acid in fermentation media: 7.967 %/brix
[2]; tube A4, nisin A 1.38 μg/g
  Maltotriose in fermentation media: 0.298 %/brix
  ethanol in fermentation media: 0.062 %/brix
  formic acid in fermentation media: 0.282 %/brix
  fructose in fermentation media: 0.000 %/brix
  glucose in fermentation media: 24.138 %/brix
  glycerol in fermentation media: 0.319 %/brix
  lactic acid in fermentation media: 5.496 %/brix
  maltose in fermentation media: 0.815 %/brix
  acetic acid in fermentation media: 8.219 %/brix
[2]; tube A5, nisin A 3.08 μg/g
  Maltotriose in fermentation media: 0.276 %/brix
  ethanol in fermentation media: 0.094 %/brix
  formic acid in fermentation media: 0.407 %/brix
  fructose in fermentation media: 0.000 %/brix
  glucose in fermentation media: 24.698 %/brix
  glycerol in fermentation media: 0.350 %/brix
  lactic acid in fermentation media: 4.672 %/brix
  maltose in fermentation media: 0.598 %/brix
  acetic acid in fermentation media: 8.296 %/brix
[2]; tube A6, nisin A 5.97 μg/g
  Maltotriose in fermentation media: 0.288 %/brix
  ethanol in fermentation media: 0.057 %/brix
  formic acid in fermentation media: 0.280 %/brix
  fructose in fermentation media: 0.000 %/brix
  glucose in fermentation media: 25.304 %/brix
  glycerol in fermentation media: 0.328 %/brix
  lactic acid in fermentation media: 2.707 %/brix
  maltose in fermentation media: 0.941 %/brix
  acetic acid in fermentation media: 8.143 %/brix
[2]; tube A7, nisin A 8.86 μg/g
  Maltotriose in fermentation media: 0.419 %/brix
  ethanol in fermentation media: 0.055 %/brix
  formic acid in fermentation media: 0.234 %/brix
  fructose in fermentation media: 0.000 %/brix
  glucose in fermentation media: 25.444 %/brix
  glycerol in fermentation media: 0.299 %/brix
  lactic acid in fermentation media: 1.521 %/brix
  maltose in fermentation media: 0.775 %/brix
  acetic acid in fermentation media: 7.899 %/brix
[2]; tube A8, nisin A 11.87 μg/g
  Maltotriose in fermentation media: 0.305 %/brix
  ethanol in fermentation media: 0.071 %/brix
  formic acid in fermentation media: 0.233 %/brix
  fructose in fermentation media: 0.000 %/brix
  glucose in fermentation media: 25.537 %/brix
  glycerol in fermentation media: 0.301 %/brix
  lactic acid in fermentation media: 1.579 %/brix
  maltose in fermentation media: 0.739 %/brix
  acetic acid in fermentation media: 8.091 %/brix
[3]
  MIC, separate experiment: about 2.5 μg/g
[3]; 15 Hr, 31° C.
  minimal inhibitory concentration estimated from graphs: 5 to 7 µg/g
[3]; [4]
  91516 ABS 610f: 1.568
  Corrected ABS 610rs: 1.106
[3]; [5]
  91516 ABS 610f: 1.531
  Corrected ABS 610rs: 1.063
[3]; [6]
  91516 ABS 610f: 1.334
  Corrected ABS 610rs: 0.868
[3]; [7]
  91516 ABS 610f: 0.911
  Corrected ABS 610rs: 0.473
[3]; [8]
  91516 ABS 610f: 0.536
  Corrected ABS 610rs: 0.116
[3]; [9]
  91516 ABS 610f: 0.403
  Corrected ABS 610rs: 0.001
[3]; [10]
  91516 ABS 610f: 0.361
  Corrected ABS 610rs: 0.001

Reference: patent US11246893B2, “Bacteriocin production, compositions and methods of use” (ISOThrive Inc., priority 2016, dated 2022)
